Values belong to the compound of their own block, whether it stands above or below them.
How the values were obtained:
[1] = test system: Human immunodeficiency virus 1; test: Reactivation of HIV-1 latency infected in GFP-fused human J-Lat 10.6 cells assessed as increase in GFP expression incubated for 48 hrs by flow cytometry; format: functional, organism-based; details: Human immunodeficiency virus 1, J-Lat 10.6, 48 h
[2] = test system: Human immunodeficiency virus 1; test: Reactivation of HIV-1 latency infected in GFP-fused human J-Lat C11 cells assessed as increase in GFP expression at 1 to 100000 nM incubated for 48 hrs by flow cytometry; format: functional; details: dose 1-100000 nM
[3] = test system: Human immunodeficiency virus 1; test: Reactivation of HIV-1 latency infected in GFP-fused human J-Lat 10.6 cells assessed as increase in GFP expression at 1 to 100000 nM incubated for 48 hrs by flow cytometry; format: functional; details: dose 1-100000 nM
[4] = test system: Human immunodeficiency virus 1; test: Reactivation of HIV-1 latency infected in GFP-fused human J-Lat C11 cells assessed as increase in GFP expression incubated for 48 hrs by flow cytometry; format: functional, organism-based; details: Human immunodeficiency virus 1, J-Lat C11, 48 h
[5] = Cytotoxicity against human J-Lat C11 cells assessed as reduction in cell viability incubated for 72 hrs by CCK-8 assay; format: toxicity, cell-based
[6] = Cytotoxicity against human J-Lat 10.6 cells assessed as reduction in cell viability incubated for 72 hrs by CCK-8 assay; format: toxicity, cell-based
[7] = Inhibition of HIV-1 latency infected in human ACH-2 cells assessed as fold increase in HIV production by measuring p24 level incubated for 48 hrs in presence of vorinostat by ELISA; format: functional, Human immunodeficiency virus 1, ACH-2 cell line
[8] = Inhibition of HIV-1 latency infected in human ACH-2 cells assessed as fold increase in HIV production by measuring p24 level incubated for 48 hrs in presence of 5-azacytidine by ELISA; format: functional, Human immunodeficiency virus 1, ACH-2 cell line
[9] = test system: Human immunodeficiency virus 1; test: Reversal of HIV-1 latency infected in GFP-fused human J-Lat C11 cells assessed as increase in GFP expression at 100 uM incubated for 72 hrs by flow cytometry; format: functional
[10] = Inhibition of HIV-1 latency infected in human ACH-2 cells assessed as fold increase in HIV production by measuring p24 level incubated for 48 hrs in presence of BIX01294 by ELISA; format: functional, Human immunodeficiency virus 1, ACH-2 cell line
[11] = target: Histone deacetylase 4 (Homo sapiens, UniProt P56524); test: Inhibition of recombinant human HDAC4 expressed in baculovirus expression system using KI-104 as substrate incubated for 3 hrs by fluorescence-based assay
[12] = target: T1, Protein deacetylase HDAC6 (Homo sapiens, UniProt Q9UBN7); test: Inhibition of recombinant human HDAC6 expressed in baculovirus expression system using KI-104 as substrate incubated for 3 hrs by fluorescence-based assay
T1 sequence (Q9UBN7 whole entry): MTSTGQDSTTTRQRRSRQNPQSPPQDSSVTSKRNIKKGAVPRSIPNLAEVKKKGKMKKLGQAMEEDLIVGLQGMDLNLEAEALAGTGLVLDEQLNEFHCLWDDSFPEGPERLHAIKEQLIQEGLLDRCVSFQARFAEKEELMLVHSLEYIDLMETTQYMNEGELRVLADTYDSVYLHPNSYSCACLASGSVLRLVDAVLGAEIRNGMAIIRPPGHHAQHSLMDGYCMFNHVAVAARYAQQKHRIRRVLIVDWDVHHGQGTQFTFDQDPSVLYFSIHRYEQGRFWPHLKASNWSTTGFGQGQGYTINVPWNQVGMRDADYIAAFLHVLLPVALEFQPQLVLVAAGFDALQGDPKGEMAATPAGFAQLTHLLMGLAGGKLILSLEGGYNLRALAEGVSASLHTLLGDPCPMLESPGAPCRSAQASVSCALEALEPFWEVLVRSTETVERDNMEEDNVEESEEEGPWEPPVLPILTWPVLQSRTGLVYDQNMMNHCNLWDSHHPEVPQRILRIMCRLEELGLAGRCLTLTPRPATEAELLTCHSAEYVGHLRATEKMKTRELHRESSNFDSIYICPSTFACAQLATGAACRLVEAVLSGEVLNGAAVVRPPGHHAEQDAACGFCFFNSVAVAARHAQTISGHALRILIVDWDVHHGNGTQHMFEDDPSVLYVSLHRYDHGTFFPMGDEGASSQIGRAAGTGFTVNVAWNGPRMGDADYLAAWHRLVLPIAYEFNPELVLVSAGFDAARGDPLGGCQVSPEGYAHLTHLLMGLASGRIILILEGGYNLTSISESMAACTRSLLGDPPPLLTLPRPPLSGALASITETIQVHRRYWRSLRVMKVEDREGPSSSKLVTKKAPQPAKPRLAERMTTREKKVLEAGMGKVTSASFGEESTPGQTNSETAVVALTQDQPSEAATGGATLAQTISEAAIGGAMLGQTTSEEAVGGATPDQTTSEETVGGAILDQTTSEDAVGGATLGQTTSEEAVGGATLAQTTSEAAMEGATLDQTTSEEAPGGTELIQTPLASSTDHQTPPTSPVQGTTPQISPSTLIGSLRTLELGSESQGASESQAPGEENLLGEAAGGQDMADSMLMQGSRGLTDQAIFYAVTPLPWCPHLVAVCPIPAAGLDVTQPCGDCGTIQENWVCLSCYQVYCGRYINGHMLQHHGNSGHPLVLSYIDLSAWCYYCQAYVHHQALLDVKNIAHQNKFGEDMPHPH

[13] = test system: Human immunodeficiency virus 1; test: Reactivation of HIV-1 latency in human ACH-2 cells assessed as fold increase in p24 expression at 1 uM incubated for 24 hrs by western blot analysis; format: functional, ACH-2 cell line
[14] = test system: Human immunodeficiency virus 1; test: Reactivation of HIV-1 latency in human U1 cells assessed as fold increase in p24 expression at 1 uM incubated for 24 hrs by western blot analysis; format: functional
[15] = test system: Human immunodeficiency virus 1; test: Reversal of HIV-1 latency in human ACH-2 cells assessed as increase in GFP positive cells incubated for 24 hrs by flow cytometry; format: functional, organism-based, ACH-2 cell line; details: Human immunodeficiency virus 1, ACH-2, 24 h
[16] = test system: Human immunodeficiency virus 1; test: Reversal of HIV-1 latency infected in human U1 cells assessed as fold increase in p24 expression level at 15.6 nM incubated for 48 hrs by ELISA; format: functional
[17] = test system: Human immunodeficiency virus 1; test: Reversal of HIV-1 latency infected in human ACH-2 cells assessed as fold increase in p24 expression level at 15.6 nM incubated for 48 hrs by ELISA; format: functional, ACH-2 cell line
[18] = test system: Human immunodeficiency virus 1; test: Reversal of HIV-1 latency infected in human ACH-2 cells assessed as fold increase in p24 expression level at 31.1 nM incubated for 48 hrs by ELISA; format: functional, ACH-2 cell line
[19] = test system: Human immunodeficiency virus 1; test: Reversal of HIV-1 latency infected in human U1 cells assessed as fold increase in p24 expression level at 31.1 nM incubated for 48 hrs by ELISA; format: functional
[20] = Inhibition of HIV-1 latency in human CD4+ve Th cells infected NL4.3-Luc virus assessed as p24 expression level incubated for 48 hrs by v450 dye based flow cytometry; format: functional, cell-based; details: Human immunodeficiency virus 1, CD4+ve Th
[21] = test system: Human immunodeficiency virus 1; test: Reactivation of HIV-1 latency infected in human Th17 cells assessed as increase in HIV production by measuring phosphorylated S175 CDK9 levels at 10 nM incubated for 96 hrs by flow cytometry; format: functional
[22] = test system: Human immunodeficiency virus 1; test: Reactivation of HIV-1 latency infected in human Th17 cells assessed as increase in HIV production by measuring phosphorylated S175 CDK9 levels at 1 uM incubated for 96 hrs by flow cytometry; format: functional
[23] = test system: Human immunodeficiency virus 1; test: Reversal of HIV-1 latency infected in human J-Lat Tat-GFP Clone A7 cells assessed as increase in GFP expressing cells at 100 nM incubated for 72 hrs by flow cytometry analysis relative to control; format: functional
[24] = test system: Human immunodeficiency virus 1; test: Reversal of HIV-1 latency infected in GFP-fused human J-Lat C11 cells assessed as increase in GFP expression at 2 uM incubated for 3 hrs by flow cytometry; format: functional

Sequence of Histone deacetylase 4 (P56524 whole entry): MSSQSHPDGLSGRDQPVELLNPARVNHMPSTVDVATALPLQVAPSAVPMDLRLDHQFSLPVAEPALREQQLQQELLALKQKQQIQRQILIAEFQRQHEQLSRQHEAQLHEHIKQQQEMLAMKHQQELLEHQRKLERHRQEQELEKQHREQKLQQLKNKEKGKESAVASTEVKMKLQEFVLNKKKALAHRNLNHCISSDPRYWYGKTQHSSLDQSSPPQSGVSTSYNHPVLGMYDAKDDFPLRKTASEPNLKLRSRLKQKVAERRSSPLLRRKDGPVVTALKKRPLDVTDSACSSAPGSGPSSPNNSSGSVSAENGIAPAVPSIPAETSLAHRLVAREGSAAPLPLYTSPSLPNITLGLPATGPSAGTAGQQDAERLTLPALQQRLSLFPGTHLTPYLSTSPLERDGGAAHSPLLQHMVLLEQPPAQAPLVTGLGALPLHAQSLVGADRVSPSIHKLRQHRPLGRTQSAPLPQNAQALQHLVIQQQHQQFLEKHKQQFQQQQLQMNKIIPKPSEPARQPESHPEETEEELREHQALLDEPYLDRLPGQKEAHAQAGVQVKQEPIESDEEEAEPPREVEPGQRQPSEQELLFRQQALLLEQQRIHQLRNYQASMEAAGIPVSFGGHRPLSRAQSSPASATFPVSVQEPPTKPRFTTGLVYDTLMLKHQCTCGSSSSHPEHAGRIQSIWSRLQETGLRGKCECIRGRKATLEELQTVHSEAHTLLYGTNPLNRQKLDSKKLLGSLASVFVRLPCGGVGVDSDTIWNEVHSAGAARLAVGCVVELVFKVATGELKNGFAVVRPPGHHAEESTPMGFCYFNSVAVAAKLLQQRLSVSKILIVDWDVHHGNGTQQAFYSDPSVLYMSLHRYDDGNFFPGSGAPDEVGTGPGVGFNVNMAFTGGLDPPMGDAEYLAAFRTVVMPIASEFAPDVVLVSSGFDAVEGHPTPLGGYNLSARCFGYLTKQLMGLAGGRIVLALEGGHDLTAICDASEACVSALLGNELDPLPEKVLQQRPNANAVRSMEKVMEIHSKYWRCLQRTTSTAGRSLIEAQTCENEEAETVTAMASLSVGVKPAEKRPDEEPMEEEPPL

SMILES: CC(C)=CC(=O)O[C@H]1C(C)=C[C@]23C(=O)[C@H](C=C(CO)[C@@H](O)[C@]12O)C1C(C[C@H]3C)C1(C)C (stereo not given in full)
- EC50 [1]: 58 nM

- EC50 [4]: 3.53 nM
- EC50 [1]: 4.06 nM
SMILES: CCCCCCCCCCCC(=O)OCC1=C[C@H]2C(=O)[C@]3(C=C(C)[C@H](OC(=O)CC(C)C(C)C)[C@@]3(O)[C@@H]1O)[C@H](C)CC1C2C1(C)C (stereo not given in full)
- Activity [2]: 80%
- Activity [3]: 90%
- CC50 at 72 h [5]: 68.5 nM
- CC50 at 72 h [6]: 94.2 nM

SMILES: COc1cc2nc(N3CCCN(C)CC3)nc(NC3CCN(Cc4ccccc4)CC3)c2cc1OC
- fold change (FC) [7]: 47
- fold change (FC) [8]: 47

SMILES: COc1cc(OC)c2c(=O)[nH]c(-c3cc(C)c(OCCO)c(C)c3)nc2c1 [APABETALONE]
- Activity [9]: 75%

SMILES: Nc1ncn([C@@H]2O[C@H](CO)[C@@H](O)[C@H]2O)c(=O)n1 [AZACITIDINE]
- fold change (FC) [10]: 47

- EC50 [11]: 115 nM
- EC50 [12]: 82 nM
SMILES: O=C(/C=C/c1cccc(S(=O)(=O)Nc2ccccc2)c1)NO [BELINOSTAT]

SMILES: CC[C@@H]1C(=O)N(C)c2cnc(Nc3ccc(C(=O)NC4CCN(C)CC4)cc3OC)nc2N1C1CCCC1 [BI-2536]
- fold change (FC) [13]: 261
- fold change (FC) [14]: 177

SMILES: CC(C)[C@H]1C(=O)N[C@H](CO)Cc2c[nH]c3cccc(c23)N1C [INDOLACTUM]
- EC50 [15]: 47 nM

- EC50 [20]: 10 nM
SMILES: Cc1[nH]c2ccccc2c1CCNCc1ccc(/C=C/C(=O)NO)cc1 [PANOBINOSTAT]
- fold change (FC) [16]: 12.8
- fold change (FC) [17]: 27.7
- fold change (FC) [18]: 51.8
- fold change (FC) [19]: 19.9

SMILES: CCN(c1cc(-c2ccc(CN3CCOCC3)cc2)cc(C(=O)NCc2c(C)cc(C)[nH]c2=O)c1C)C1CCOCC1 [TAZEMETOSTAT]
- Activity [21]: 25%
- Activity [22]: 35%

SMILES: CC(/C=C/C(=O)NO)=C\[C@@H](C)C(=O)c1ccc(N(C)C)cc1 [TRICHOSTATIN]
- Activity [23]: 21.3%

SMILES: O=C(CCCCCCC(=O)Nc1ccccc1)NO [VORINOSTAT]
- Activity [24]: 3.2%

Source: ChEMBL document CHEMBL5096158, “HIV latency reversal agents: A potential path for functional cure?” (Eur J Med Chem, 2021)
